Assay results published in patent publication US7960398B2, “Regulation of TNF-alpha” (Vertex Pharmaceuticals Incorporated, priority 2002, dated 2011).

Test system: TNF-alpha
Assay: Inhibition of TNF Release From Whole Blood
Format: cell-based
Conditions: human whole blood diluted 1:2 in PBS, LPS 5 ng/ml, incubated at 37° C. overnight, TNF-alpha in supernatants by ELISA
Method: Human blood was freshly drawn from healthy donors and collected in vacutainers. Blood was diluted 1:2 in PBS (tissue culture, pyrogen free) in a sterile bottle and inverted to mix well. Aliquots of 0.5 ml of blood mixture were dispensed into cluster tubes in 96 well format.
Dilutions of the test compounds were prepared in RPMI by taking 100 mM DMSO stocks of the compounds and diluting 1:10 in RPMI medium in eppendorfs, to give a 10 mM stock. 1:5 serial dilutions were prepared from the stock solutions.
LPS was kept at a frozen stock (−20 degrees C.) at 1 mg/ml in PBS and then diluted to 1:10 with RPMI medium and finally diluted in the medium again 1:350. 50 μl of each test compound (first concentration was 100 uM) were added to the blood samples and then stimulated with 10 μl LPS (final concentration in the well is 5 ng/ml). The contents were gently mixed using an 8 well multi-channel pipette and incubated at 37° C. overnight. At the end of the incubation time, contents were gently mixed, then spun down at 1000×g for 5 mins at 20° C. The serum supernatants were transferred to a fresh plate without disturbing the RBCs and diluted 1:2 with the diluent RD6C.
TNF-alpha levels of supernatants were assayed using the R+D systems ELISA kit, using R+D systems protocol. Samples were read at 450 nm. The compounds shown in Table 1 were tested in the above assay. In this TNF-alpha assay, category “A” indicates an IC50 value of <500 nM. Category “B” indicates an IC50 value of 500-1000 nM. […] Category “D” indicates an IC50 value of >2000 nM.

Compound	IC50 [µM]
O=C(O)CC(NC(=O)[C@@H]1CCCCN1C(=O)c1ccc(-c2cccc(C(F)(F)F)c2)o1)C(=O)CF (stereo partly shown) [drawing 78]	> 2
O=C(O)CC(NC(=O)[C@@H]1CCCCN1C(=O)O[C@H](c1ccccc1)C(F)(F)F)C(=O)CF (stereo partly shown) [drawing 65]	< 0.5
CC(C)[C@@H](C(=O)NC(CC(=O)O)C(=O)CF)n1cnc2ccccc2c1=O (stereo partly shown)	0.5 to 1
CC[C@@H](C(=O)NC(CC(=O)O)C(=O)CF)n1cnc2ccc(Sc3cccc(F)c3)cc2c1=O (stereo partly shown)	1 to 2
CCC[C@@H](C(=O)NC(CC(=O)O)C(=O)CF)n1cnc2ccccc2c1=O (stereo partly shown)	< 0.5
O=C(O)CC(NC(=O)[C@@H]1CCCCN1C(=O)OCc1cc(Cl)cc(Cl)c1)C(=O)CF (stereo partly shown)	1 to 2
Cc1c(C(=O)N[C@H](C(=O)NC(CC(=O)O)C(=O)CF)C(C)C)n(C)c2ccccc12 (stereo partly shown)	< 0.5
O=C(O)CC(NC(=O)[C@@H]1CCCCN1C(=O)N1c2ccccc2Sc2ccc(C(F)(F)F)cc21)C(=O)CF (stereo partly shown)	> 2
CCC[C@@H](C(=O)NC(CC(=O)O)C(=O)CF)n1ccc2ccccc2c1=O (stereo partly shown)	< 0.5
CC[C@@H](C(=O)NC(CC(=O)O)C(=O)CF)n1cnc2ccc(Oc3ccccc3Cl)cc2c1=O (stereo partly shown)	> 2
C[C@@H](C(=O)NC(CC(=O)O)C(=O)CF)n1ccc2ccccc2c1=O (stereo partly shown)	1 to 2
O=C(O)CC(NC(=O)[C@@H]1CCCCN1C(=O)OCc1cccc(Cl)c1F)C(=O)CF (stereo partly shown)	< 0.5
O=C(O)CC(NC(=O)[C@@H]1CCCCN1C(=O)c1sc2ccccc2c1Cl)C(=O)CF (stereo partly shown)	< 0.5
O=C(O)CC(NC(=O)[C@@H]1CCCCN1C(=O)OCc1cc(Cl)ccc1F)C(=O)CF (stereo partly shown) [drawing 40]	< 0.5
Cc1cccc(COC(=O)N2CCCC[C@H]2C(=O)NC(CC(=O)O)C(=O)CF)c1 (stereo partly shown)	0.5 to 1
CC[C@@H](C(=O)NC(CC(=O)O)C(=O)CF)n1cnc2ccc(Cl)cc2c1=O (stereo partly shown)	< 0.5
CC[C@@H](C(=O)N[C@@H](CC(=O)O)C(=O)COc1c(F)c(F)cc(F)c1F)n1cnc2ccc(Cl)cc2c1=O	1 to 2
CC[C@@H](C(=O)NC(CC(=O)O)C(=O)CF)n1cnc2ccccc2c1=O (stereo partly shown)	< 0.5
CC(C)[C@H](OC(=O)n1c2ccccc2c2ccccc21)C(=O)NC(CC(=O)O)C(=O)CF (stereo partly shown) [drawing 76]	1 to 2
O=C(O)CC(NC(=O)[C@@H]1CCCCN1C(=O)c1ccc(-c2cccc(C(F)(F)F)c2)o1)C(=O)CF (stereo partly shown) [drawing 39]	> 2
CC[C@@H](C(=O)N[C@@H](CC(=O)O)C(=O)COP(=O)(c1ccccc1)c1ccccc1)n1cnc2ccccc2c1=O	> 2
CC[C@@H](C(=O)NC(CC(=O)O)C(=O)COc1c(F)c(F)cc(F)c1F)n1ccc2ccc(Cl)cc2c1=O (stereo partly shown)	1 to 2
CC[C@@H](C(=O)NC(CC(=O)O)C(=O)CF)n1cnc2ccc(Oc3ccccc3)cc2c1=O (stereo partly shown)	0.5 to 1

Compound	IC50 [µM]
CC[C@@H](C(=O)NC(CC(=O)O)C(=O)CF)n1ccc2ccc(Cl)cc2c1=O (stereo partly shown)	< 0.5
O=C(O)CC(NC(=O)[C@@H]1CCCCN1C(=O)N1c2ccccc2Sc2ccc(Cl)cc21)C(=O)CF (stereo partly shown)	0.5 to 1
Cc1ccccc1COC(=O)N1CCCC[C@H]1C(=O)NC(CC(=O)O)C(=O)CF (stereo partly shown)	< 0.5
O=C(O)CC(NC(=O)[C@@H]1CCCc2cc3ccccc3c(=O)n21)C(=O)CF (stereo partly shown)	< 0.5
CC(C)[C@H](NC(=O)OCc1ccccc1)C(=O)NC(CC(=O)O)C(=O)CF (stereo partly shown)	< 0.5
CC(C)[C@H](OC(=O)n1c2ccccc2c2ccccc21)C(=O)NC(CC(=O)O)C(=O)CF (stereo partly shown) [drawing 36]	1 to 2
O=C(O)CC(NC(=O)[C@@H]1CCCc2nc3ccccc3c(=O)n21)C(=O)CF (stereo partly shown)	0.5 to 1
CC[C@@H](C(=O)NC(CC(=O)O)C(=O)COc1c(F)c(F)cc(F)c1F)n1cnc2ccccc2c1=O (stereo partly shown)	1 to 2
CC(C)[C@H](OC(=O)Nc1ccccc1)C(=O)NC(CC(=O)O)C(=O)CF (stereo partly shown)	< 0.5
O=C(O)CC(NC(=O)[C@@H]1CCCCN1C(=O)OCc1cc(F)ccc1F)C(=O)CF (stereo partly shown)	< 0.5
C[C@@H](C(=O)NC(CC(=O)O)C(=O)CF)n1cnc2ccccc2c1=O (stereo partly shown) [drawing 34]	< 0.5
O=C(O)C[C@H](NC(=O)[C@@H]1CCCCN1C(=O)OCc1cc(Cl)ccc1F)C(=O)COc1c(F)c(F)cc(F)c1F	> 2
O=C(O)CC(NC(=O)[C@@H]1CCCCN1C(=O)O[C@H](c1ccccc1)C(F)(F)F)C(=O)CF (stereo partly shown) [drawing 37]	< 0.5
CC[C@H](NC(=O)c1ncc[nH]1)C(=O)NC(CC(=O)O)C(=O)CF (stereo partly shown)	< 0.5
CC[C@@H](C(=O)NC(CC(=O)O)C(=O)CF)n1ccc2ccc(-c3ccccc3)cc2c1=O (stereo partly shown)	< 0.5
CCCSc1ccc2ncn([C@@H](CC)C(=O)NC(CC(=O)O)C(=O)CF)c(=O)c2c1 (stereo partly shown)	< 0.5
CC[C@@H](C(=O)N[C@@H](CC(=O)O)C(=O)COc1c(F)c(F)cc(F)c1F)n1ccc2ccccc2c1=O	0.5 to 1
CC[C@@H](C(=O)NC(CC(=O)O)C(=O)CF)n1cnc2ccc(Oc3cccc(F)c3)cc2c1=O (stereo partly shown)	> 2
CC[C@@H](C(=O)NC(CC(=O)O)C(=O)CF)n1ccc2ccc(C(F)(F)F)cc2c1=O (stereo partly shown)	0.5 to 1
CC[C@@H](C(=O)NC(CC(=O)O)C(=O)CF)n1cnc2ccc(Oc3cccc(Cl)c3)cc2c1=O (stereo partly shown)	> 2
C[C@H](OC(=O)Nc1ccccc1)C(=O)NC(CC(=O)O)C(=O)CF (stereo partly shown)	0.5 to 1
C[C@@H](C(=O)NC(CC(=O)O)C(=O)CF)n1cnc2ccccc2c1=O (stereo partly shown) [drawing 66]	< 0.5
O=C(O)CC(NC(=O)[C@@H]1CCCCN1C(=O)OCc1cc(Cl)ccc1F)C(=O)CF (stereo partly shown) [drawing 70]	< 0.5
